Assay results published in patent US5128359A, “Benzimidazole and azabenzimidazole derivatives which are thromboxane receptor antagonists, their methods of preparation” (Laboratoires UPSA, priority 1990, dated 1992).

Target: T1, TXA2 receptors of human platelets (Homo sapiens, UniProt P21731)
T1 construct: Human platelets incubate in the presence of a single concentration; endogenous in cells; host or cells: human platelets
T1 sequence (P21731 1-343): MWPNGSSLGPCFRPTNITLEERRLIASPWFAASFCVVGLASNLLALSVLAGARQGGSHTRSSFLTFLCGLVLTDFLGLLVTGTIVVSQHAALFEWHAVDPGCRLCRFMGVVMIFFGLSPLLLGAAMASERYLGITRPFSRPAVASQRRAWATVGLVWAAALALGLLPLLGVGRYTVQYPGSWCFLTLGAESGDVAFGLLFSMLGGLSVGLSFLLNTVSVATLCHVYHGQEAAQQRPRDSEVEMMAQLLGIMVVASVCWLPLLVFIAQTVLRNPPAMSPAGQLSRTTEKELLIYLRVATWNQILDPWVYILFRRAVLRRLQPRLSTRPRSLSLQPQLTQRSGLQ
Assay: displacement of radioligand [^125 I]PTA-OH specifically bound to the TXA2 receptors of human platelets
Format: binding
Conditions: for inhibition at 10 µM / inhibition at 0.1 µM: 0.5 h, 30 minutes at 37° C; for inhibition at 10 µM: 1E-5 M competing agent, read-out: % displacement, Concentration 1E-5 M; for inhibition at 0.1 µM: 1E-7 M competing agent, read-out: % displacement, Concentration 1E-7 M; for Ki: determined according to the formula of CHENG and PRUSOFF, read-out: Ki (inhibition constant)
Protocol: The affinity of the products of the Examples described for thromboxane A2 receptors is evaluated by the technique of displacing a radioligand specifically bound to the TXA2 receptors of human platelets. […] The reaction is completed by the addition of a buffer, followed by rapid filtration through […] filters. […] The results are expressed, for the doses tested, as the percentage displacement of the radioligand specifically bound to the TXA2 receptors of human platelets.

## O=C(O)CC1(Cc2nc3cc(F)ccc3n2Cc2ccc(Cl)cc2)CCCCC1 [Example 73, [1-[1-(4-Chlorobenzyl)-5-fluorobenzimidazol-2-yl]methylcyclohex-1-yl]aceticacid]
  inhibition at 10 µM: 98%
  inhibition at 0.1 µM: 0%
  Ki: 807 nM

## CC(C)(CC(=O)O)Cc1nc2cc(F)ccc2n1Cc1ccc(Cl)cc1 [Example 74, 4-[1-(4-Chlorobenzyl)-5-fluorobenzimidazol-2-yl]-3,3-dimethylbutanoic acid]
  inhibition at 10 µM: 100%
  inhibition at 0.1 µM: 94%
  Ki: 6.3 nM

## O=C(O)[C@@H]1CC=CC[C@@H]1c1nc2cc(F)ccc2n1Cc1ccc(Cl)cc1 (relative stereo) [Example 161, Cis-5-[1-(4-chlorobenzyl)-5-fluorobenzimidazol-2-yl]cyclohexene-4-carboxylic acid]
  inhibition at 10 µM: 96%
  inhibition at 0.1 µM: 15%

## CC(C)(CC(=O)O)Cc1nc2cc(Br)ccc2n1Cc1ccc(Cl)cc1 [Example 127, 4-[1 (4-Chlorobenzyl)-5-bromobenzimidazol-2-yl]-3,3-dimethylbutanoic acid]
  inhibition at 10 µM: 67%
  inhibition at 0.1 µM: 38%

## COc1ccc2c(c1)nc(CC(C)(C)CC(=O)O)n2Cc1ccc(Cl)cc1 [Example 78, 4-[1-(4-Chlorobenzyl)-5-methoxybenzimidazol-2-yl]-3,3-dimethylbutanoic acid]
  inhibition at 10 µM: 100%
  inhibition at 0.1 µM: 44%

## CC(C)(CC(=O)O)Cc1nc2cc(Cl)ccc2n1Cc1ccc(Cl)cc1 [Example 79, 4-[1 (4-Chlorobenzyl)-5-chlorobenzimidazol-2-yl]-3,3-dimethylbutanoic acid]
  inhibition at 10 µM: 99%
  inhibition at 0.1 µM: 74%
  Ki: 23.2 nM

## O=C(O)CC1(Cc2nc3cc(F)ccc3n2Cc2ccc(Cl)cc2)CC1 [Example 150, [1-[1-(4-Chlorobenzyl)-5-fluorobenzimidazol-2-yl]methylcycloprop-1-yl]acetic acid]
  inhibition at 10 µM: 98%
  inhibition at 0.1 µM: 80%

## CSc1ccc(Cn2c(CC(C)(C)CC(=O)O)nc3cc(Cl)ccc32)cc1 [Example 117, 4-[1-(4-Methylthiobenzyl)-5-chlorobenzimidazol-2-yl]-3,3-dimethylbutanoic acid]
  inhibition at 10 µM: 89%
  inhibition at 0.1 µM: 87%
  Ki: 5.8 nM

## CC(C)(CC(=O)O)Cc1nc2ccccc2n1Cc1ccc(Br)cc1F [Example 76, 4-[1-(2-Fluoro-4-bromobenzyl)benzimidazol-2-yl]-3,3-dimethylbutanoic acid]
  inhibition at 10 µM: 99%
  inhibition at 0.1 µM: 88%
  Ki: 11.4 nM

## CC(C)(CC(=O)O)Cc1nc2cc(Cl)c(Cl)cc2n1Cc1ccc(Cl)cc1 [Example 70, 4-[1-(4-Chlorobenzyl)-5,6-dichlorobenzimidazol-2-yl]-3,3-dimethylbutanoic acid]
  inhibition at 10 µM: 100%
  inhibition at 0.1 µM: 14%

## CC(C)(CC(=O)O)Cc1nc2ccccc2n1Cc1ccc(Cl)cc1 [Example 77, 4-[1-(4-Chlorobenzyl)benzimidazol-2-yl]-3,3-dimethylbutanoic acid]
  inhibition at 10 µM: 100%
  inhibition at 0.1 µM: 85%
  Ki: 31 nM

## COc1ccc(Cn2c(CC(C)(C)CC(=O)O)nc3cc(F)ccc32)cc1 [Example 131, 4-[1-(4-Methoxybenzyl)-5 fluorobenzimidazol-2-yl]-3,3-dimethylbutanoic acid]
  inhibition at 10 µM: 100%
  inhibition at 0.1 µM: 79%

## O=C(O)CCCSc1nc2ccccc2n1Cc1ccc(Cl)cc1Cl [Example 64, 4-[1 (2,4-Dichlorobenzyl)benzimidazol-2-yl]mercaptobutanoic acid]
  inhibition at 10 µM: 97%
  inhibition at 0.1 µM: 34%

## CC(C)(CCC(=O)O)Cc1nc2cc(F)ccc2n1Cc1ccc(Cl)cc1 [Example 158, 5-[1-(4-Chlorobenzyl)-5-fluorobenzimidazol-2-yl]-4,4-dimethylpentanoic acid]
  inhibition at 10 µM: 87%
  inhibition at 0.1 µM: 56%

## Cc1ccc(Cn2c(CC(C)(C)CC(=O)O)nc3ccccc32)cc1 [Example 66, 4-[1-(4-Methylbenzyl)benzimidazol-2-yl]-3,3-dimethylbutanoic acid]
  inhibition at 10 µM: 100%
  inhibition at 0.1 µM: 52%

## O=C(O)CC1(Cc2nc3cc(F)ccc3n2Cc2ccc(Cl)cc2)CCCC1 [Example 72, [10[1-(4-Chlorobenzyl)-5-fluorobenzimidazol-2-yl]-methylcyclopent-1 yl]acetic acid]
  inhibition at 10 µM: 100%
  inhibition at 0.1 µM: 71%
  Ki: 42.3 nM

## CCC(C)(CC(=O)O)Cc1nc2ccccc2n1Cc1ccc(Cl)cc1 (stereo not drawn) [Example 75, 4-[1-(4-Chlorobenzyl)benzimidazol-2-yl]-3-methyl-3-ethylbutanoic acid]
  inhibition at 10 µM: 100%
  inhibition at 0.1 µM: 57%

## CC(C)(CC(=O)O)Cc1nc2ccccc2n1Cc1ccc(Br)cc1 [Example 69, 4-[1-(4 Bromobenzyl)benzimidazol-2-yl]-3,3-dimethylbutanoic acid]
  inhibition at 10 µM: 96%
  inhibition at 0.1 µM: 86%
  Ki: 15.8 nM

## CC(C)(CC(=O)O)Cc1nc2cc(F)ccc2n1Cc1ccc(S(C)(=O)=O)cc1 [Example 97, 4-[1-(4-Methylsulfonylbenzyl)-5-fluorobenzimidazol-2-yl]-3,3-dimethylbutanoic acid]
  inhibition at 10 µM: 100%
  inhibition at 0.1 µM: 100%
  Ki: 37 nM

## C[S+]([O-])c1ccc(Cn2c(CC(C)(C)CC(=O)O)nc3cc(Cl)ccc32)cc1 (stereo not drawn) [Example 118, 4-[1-(4-Methylsulfoxybenzyl)-5-chlorobenzimidazol-2-yl]-3,3-dimethylbutanoic acid]
  inhibition at 10 µM: 92%
  inhibition at 0.1 µM: 54%

## O=C(O)CCCCSc1nc2cc(F)ccc2n1Cc1ccc(Cl)cc1 [Example 59, 5-[1-(4-Chlorobenzyl)-5-fluorobenzimidazol-2-yl]mercaptopentanoic acid]
  inhibition at 10 µM: 100%
  inhibition at 0.1 µM: 28%

## CC(C)(CC(=O)O)Cc1nc2cc(Cl)ccc2n1Cc1ccc(S(C)(=O)=O)cc1 [Example 119, 4-[1-(4-Methylsulfonylbenzyl)-5-chlorobenzimidazol-2-yl]-3,3-dimethylbutanoic acid]
  inhibition at 10 µM: 82%
  inhibition at 0.1 µM: 61%

## CC(C)(CC(=O)O)Cc1nc2ccccc2n1Cc1ccc(F)cc1 [Example 67]
  inhibition at 10 µM: 100%
  inhibition at 0.1 µM: 66%

## CC(C)(CC(N)=O)Cc1nc2ccccc2n1Cc1ccc(Cl)cc1 [Example 85, 4-[1-(4-Chlorobenzyl)benzimidazol-2-yl]-3,3-dimethylbutanamide]
  inhibition at 10 µM: 90%
  inhibition at 0.1 µM: 7%

## CC(C)(CC(=O)O)Cc1nc2cc(F)ccc2n1Cc1ccc(Br)cc1 [Example 109, 4-[1-(4-Bromobenzyl)-5-fluorobenzimidazol-2-yl]-3,3-dimethylbutanoic acid]
  inhibition at 10 µM: 92%
  inhibition at 0.1 µM: 95%

## CC(C)(CC(=O)O)Cc1nc2ccccc2n1Cc1ccc(O)cc1 [Example 87, 4-[1-(4-Hydroxybenzyl)benzimidazol-2-yl]-3,3-dimethylbutanoic acid]
  inhibition at 10 µM: 96%
  inhibition at 0.1 µM: 50%

## CC(C)(CC(=O)O)Cc1nc2cc(F)ccc2n1Cc1ccc2ccccc2c1 [Example 147, 4-[1(Naphth-2-ylmethyl)-5-fluorobenzimidazol-2-yl]-3,3-dimethylbutanoic acid]
  inhibition at 10 µM: 93%
  inhibition at 0.1 µM: 91%

## CC(C)(CC(=O)O)Cc1nc2cc(F)ccc2n1Cc1ccc(Cl)c(Cl)c1 [Example 80, 4-[1-(3,4-Dichlorobenzyl)-5-fluorobenzimidazol-2-yl]-3,3-dimethylbutanoic acid]
  inhibition at 10 µM: 92%
  inhibition at 0.1 µM: 89%
  Ki: 6.02 nM

## CSc1ccc(Cn2c(CC(C)(C)CC(=O)O)nc3cc(F)ccc32)cc1 [Example 96, 4-[1-(4-Methylthiobenzyl)-5-fluorobenzimidazol-2-yl]-3,3-dimethylbutanoic acid]
  inhibition at 10 µM: 100%
  inhibition at 0.1 µM: 100%
  Ki: 5 nM

## CCC(CC)(CC(=O)O)Cc1nc2ccccc2n1Cc1ccc(Cl)cc1 [Example 82, 4-[1-(4-Chlorobenzyl)benzimidazol-2-yl]-3,3-diethylbutanoic acid]
  inhibition at 10 µM: 97%
  inhibition at 0.1 µM: 35%

## CC(C)(CC(=O)O)Cc1nc2cc(Cl)ccc2n1Cc1ccc2ccccc2c1 [Example 143, 4-[1-(Naphth-2-ylmethyl)-5-chlorobenzimidazol-2-yl]-3,3-dimethylbutanoic acid]
  inhibition at 10 µM: 89%
  inhibition at 0.1 µM: 77%

## O=C(O)[C@@H]1CC[C@H]1c1nc2cc(F)ccc2n1Cc1ccc(Cl)cc1 (relative stereo) [Example 90, Trans-2-[1 (4-chlorobenzyl)-5-fluorobenzimidazol-2-yl]cyclobutane-1 carboxylic acid]
  inhibition at 10 µM: 97%
  inhibition at 0.1 µM: 2%
  Ki: 1180 nM

## CC(C)(CC(=O)O)Cc1nc2cc(Cl)cnc2n1Cc1ccc(Cl)cc1 [Example 92]
  inhibition at 10 µM: 100%
  inhibition at 0.1 µM: 97%
  Ki: 12.5 nM

## O=C(O)CCCSc1nc2ccccc2n1Cc1ccc(Cl)cc1 [Example 63, 4-[1-(4-Chlorobenzyl)benzimidazol-2-yl]mercaptobutanoic acid]
  inhibition at 10 µM: 97%
  inhibition at 0.1 µM: 37%
